The test has as its target T1, unaltered α7β2‐nAChR (Homo sapiens, UniProt P17787+P36544).
T1 construct: expressed in transfected cells; host or cells: Xenopus laevis oocytes, cRNA injection
Nature of the test: ACh concentration‐response curve, TEVC, unaltered α7β2‐nAChR. It is filed as cell-based. The conditions noted are these: mean ± SEM of 15–19 oocytes. The source says: Stimulations lasted 3 s, and were applied sequentially, 60 s apart.

T1 sequence (P36544 23-502): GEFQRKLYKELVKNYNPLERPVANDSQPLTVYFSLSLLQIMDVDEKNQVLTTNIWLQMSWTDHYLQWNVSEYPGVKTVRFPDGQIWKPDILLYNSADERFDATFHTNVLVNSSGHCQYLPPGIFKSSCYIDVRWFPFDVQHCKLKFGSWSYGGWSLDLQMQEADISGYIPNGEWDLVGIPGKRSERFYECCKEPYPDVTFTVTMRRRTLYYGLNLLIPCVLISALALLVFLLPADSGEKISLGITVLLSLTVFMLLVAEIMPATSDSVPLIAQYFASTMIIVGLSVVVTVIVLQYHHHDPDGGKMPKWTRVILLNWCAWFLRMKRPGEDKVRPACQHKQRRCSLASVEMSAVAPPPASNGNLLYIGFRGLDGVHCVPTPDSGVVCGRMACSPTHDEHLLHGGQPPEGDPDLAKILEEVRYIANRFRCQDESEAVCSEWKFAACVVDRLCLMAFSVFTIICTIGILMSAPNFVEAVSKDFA
T1 sequence (P17787 26-502): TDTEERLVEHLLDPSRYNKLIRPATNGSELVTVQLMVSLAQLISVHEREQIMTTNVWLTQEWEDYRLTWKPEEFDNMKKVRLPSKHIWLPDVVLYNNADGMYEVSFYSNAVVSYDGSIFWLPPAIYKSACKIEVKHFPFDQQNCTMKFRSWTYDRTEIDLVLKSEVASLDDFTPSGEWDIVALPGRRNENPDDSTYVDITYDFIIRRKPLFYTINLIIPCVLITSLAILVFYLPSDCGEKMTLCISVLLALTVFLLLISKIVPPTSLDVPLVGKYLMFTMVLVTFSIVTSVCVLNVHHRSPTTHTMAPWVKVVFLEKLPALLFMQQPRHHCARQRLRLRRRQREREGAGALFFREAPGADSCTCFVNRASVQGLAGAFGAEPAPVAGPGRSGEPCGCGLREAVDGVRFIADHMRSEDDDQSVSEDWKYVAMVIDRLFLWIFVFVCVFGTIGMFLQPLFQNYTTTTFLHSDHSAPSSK

Regarding `CC(=O)OCC[N+](C)(C)C` [ACh, acetylcholine], where the note is “ACh 10 μM – 10 mM, half‐log steps, 3 s, 60 s apart”, the “Imax, maximum function induced by ACh, unaltered α7β2‐nAChR” value was 1353 ± 149 nA. The “hillslope (nH), unaltered α7β2‐nAChR” value (logistic fit per oocyte) stood at 1.03 ± 0.07.
